The target of data set [1] is ABCB1 (P-glycoprotein) (Homo sapiens, UniProt P08183). Description: competition of […]-IAAP photoaffinity labeling in membrane vesicles. The format is binding.
Data set [2] addresses T1, ABCG2 (Homo sapiens, UniProt Q9UNQ0).
T1 sequence (Q9UNQ0 1-655): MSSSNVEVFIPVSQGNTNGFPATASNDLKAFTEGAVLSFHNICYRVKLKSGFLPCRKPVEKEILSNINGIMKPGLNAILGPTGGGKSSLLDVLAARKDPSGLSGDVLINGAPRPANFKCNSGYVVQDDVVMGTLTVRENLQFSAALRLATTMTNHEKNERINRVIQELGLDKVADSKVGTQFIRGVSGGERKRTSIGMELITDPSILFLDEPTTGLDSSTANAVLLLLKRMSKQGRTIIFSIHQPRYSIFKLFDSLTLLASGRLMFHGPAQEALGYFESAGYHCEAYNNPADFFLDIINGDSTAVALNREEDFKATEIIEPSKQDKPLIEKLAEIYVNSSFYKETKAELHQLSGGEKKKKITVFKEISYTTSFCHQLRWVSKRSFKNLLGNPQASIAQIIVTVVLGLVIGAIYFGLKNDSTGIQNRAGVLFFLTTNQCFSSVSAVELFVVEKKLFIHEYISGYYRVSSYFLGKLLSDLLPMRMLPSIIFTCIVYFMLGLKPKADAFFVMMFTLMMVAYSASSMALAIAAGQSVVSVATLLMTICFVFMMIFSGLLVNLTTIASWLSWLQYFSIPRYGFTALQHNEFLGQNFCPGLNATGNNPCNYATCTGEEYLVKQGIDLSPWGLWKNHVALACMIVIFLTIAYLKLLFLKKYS

SMILES strings stand for the structures.

Chain of ABCB1 (P-glycoprotein) (P08183 whole entry): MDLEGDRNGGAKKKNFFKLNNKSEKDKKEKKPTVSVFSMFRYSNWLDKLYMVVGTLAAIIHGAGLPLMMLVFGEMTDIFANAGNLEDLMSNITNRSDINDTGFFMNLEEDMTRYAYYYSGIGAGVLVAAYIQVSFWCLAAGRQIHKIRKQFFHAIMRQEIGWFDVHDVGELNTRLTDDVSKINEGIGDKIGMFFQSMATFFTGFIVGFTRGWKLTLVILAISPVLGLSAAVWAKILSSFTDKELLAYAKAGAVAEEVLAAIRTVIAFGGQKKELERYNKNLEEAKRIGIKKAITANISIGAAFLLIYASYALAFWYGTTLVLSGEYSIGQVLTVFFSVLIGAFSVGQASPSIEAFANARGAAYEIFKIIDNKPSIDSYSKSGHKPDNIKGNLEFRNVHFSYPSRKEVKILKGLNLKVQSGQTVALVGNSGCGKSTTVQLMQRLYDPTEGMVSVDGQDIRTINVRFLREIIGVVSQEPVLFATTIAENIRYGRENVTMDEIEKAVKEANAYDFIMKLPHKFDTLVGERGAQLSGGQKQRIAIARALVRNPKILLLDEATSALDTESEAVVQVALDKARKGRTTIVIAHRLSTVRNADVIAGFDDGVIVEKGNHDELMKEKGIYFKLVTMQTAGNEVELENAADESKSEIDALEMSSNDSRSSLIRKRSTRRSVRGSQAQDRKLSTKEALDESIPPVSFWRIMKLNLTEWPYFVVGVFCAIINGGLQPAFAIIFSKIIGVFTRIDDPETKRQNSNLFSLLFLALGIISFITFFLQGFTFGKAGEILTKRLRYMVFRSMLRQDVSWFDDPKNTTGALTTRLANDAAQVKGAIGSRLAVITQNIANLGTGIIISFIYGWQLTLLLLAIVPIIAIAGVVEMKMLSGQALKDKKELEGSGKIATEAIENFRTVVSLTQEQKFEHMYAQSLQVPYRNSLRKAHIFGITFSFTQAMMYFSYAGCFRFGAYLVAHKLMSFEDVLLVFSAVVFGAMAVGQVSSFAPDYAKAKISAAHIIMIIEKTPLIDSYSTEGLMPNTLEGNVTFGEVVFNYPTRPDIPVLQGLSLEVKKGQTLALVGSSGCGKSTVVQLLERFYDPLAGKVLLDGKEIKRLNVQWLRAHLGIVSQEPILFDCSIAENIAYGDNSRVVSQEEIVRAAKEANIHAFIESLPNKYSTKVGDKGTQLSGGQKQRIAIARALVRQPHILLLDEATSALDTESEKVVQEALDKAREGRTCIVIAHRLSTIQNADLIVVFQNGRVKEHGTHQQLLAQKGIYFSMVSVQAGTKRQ

`CS(=O)(=O)CCNCc1ccc(-c2ccc3ncnc(Nc4ccc(OCc5cccc(F)c5)c(Cl)c4)c3c2)o1` [lapatinib, N-{3-chloro-4-[(3-fluorobenzyl)oxy]phenyl}-6-[5-({[2-(methylsulfonyl)ethyl]amino}methyl)-2-furyl]-4-quinazolinamine]: the half-inhibitory concentration (IC50) in data set [1] is 2800 ± 600 nM.
Turning to `C#Cc1cccc(Nc2ncnc3cc(OCCOC)c(OCCOC)cc23)c1` [erlotinib], the “inhibition of [3H]-methotrexate uptake in membrane vesicles” value in data set [2] is “inhibitory effect of lapatinib on methotrexate transport by ABCG2 membrane vesicles is comparable to that of erlotinib and FTC”.

For the origin of these results see paper PMC2652245 (Cancer research, 2008).
